From the supplement of paper PMC12533247
± gives the standard deviation of the averaged measurements.

How the values were obtained:
[1] = system: HSV-1 K26-GFP infected primary human skin cells; experiment: % change of HSV-1 GFP signal vs untreated infected cells; higher = less antiviral inhibition; conditions: cell type: primary dermal fibroblasts, time (h post infection): 48
Protocol: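 2D primary donor-derived dermal fibroblasts infected with GFP-HSV-1 K26 at MOI 1, treated 1 h later with compound dilutions and read at 48 hpi on IncuCyte. GFP integrated intensity is normalised to mock-infected and untreated infected wells (% change; -100 = full inhibition).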

[2] = system: HSV-1 K26-GFP infected primary human skin cells; experiment: as above
Protocol: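 2D primary donor-derived keratinocytes (read at 20 hpi) and donor-matched dermal fibroblasts (read at 48 hpi) infected with GFP-HSV-1 K26 at MOI 1 and treated 1 h later with compound dilutions. IncuCyte GFP integrated intensity is normalised by subtracting mock-infected wells and dividing by untreated infected wells, shown as % change (-100 = full inhibition).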

Nc1nc2c(ncn2COCCO)c(=O)[nH]1 [Acyclovir]
% change of HSV-1 GFP signal [%], [1]
Conditions	0.01 µM	0.03 µM	0.091 µM	0.274 µM	0.823 µM	2.469 µM	7.407 µM	22.222 µM	66.667 µM	200 µM
donor: 3	11.2 ± 6.3	-4.39 ± 2.3	-24.2 ± 8.5	-53.8 ± 11	-81.8 ± 4.9	-96 ± 0.22	-98.87 ± 0.13	-99.69 ± 0.19	-99.875 ± 0.098	-99.88 ± 0.11
donor: 4	-5.12 ± 16	-10.6 ± 10	-29.8 ± 15	-54.4 ± 18	-78.2 ± 15	-94 ± 3.8	-98.8 ± 1	-99.862 ± 0.042	-99.93 ± 0.067	-99.998 ± 0.025

% change of HSV-1 GFP signal [%], [2]
Conditions	0.01 µM	0.03 µM	0.091 µM	0.274 µM	0.823 µM	2.469 µM	7.407 µM	22.222 µM	66.667 µM	200 µM
cell type: primary dermal fibroblasts, donor: 5, time (h post infection): 48	8.25 ± 7.3	5.48 ± 7.8	-8.89 ± 2.1	-35.4 ± 1	-64.4 ± 10	-91.6 ± 3	-98.36 ± 0.36	-99.642 ± 0.057	-99.73 ± 0.32	-99.952 ± 0.046
cell type: primary keratinocytes, donor: 3, time (h post infection): 20	4.06 ± 5.7	2.08 ± 2.7	5.2 ± 9.3	11.3 ± 12	10.1 ± 10	10.8 ± 15	5.3 ± 7.6	-13.4 ± 9.2	-42.3 ± 4.5	-69.1 ± 3.9
cell type: primary keratinocytes, donor: 4, time (h post infection): 20	3.4 ± 2.5	-0.143 ± 12	2.05 ± 15	3.28 ± 9.3	-0.371 ± 6.8	-2.35 ± 5.6	-4.48 ± 10	-27.5 ± 10	-53.6 ± 9.3	-80.5 ± 5
cell type: primary keratinocytes, donor: 5, time (h post infection): 20	3.43 ± 11	1.77 ± 12	4.64 ± 17	3.64 ± 6.5	4.14 ± 18	5.76 ± 13	-4.49 ± 16	-17.7 ± 9.9	-45.6 ± 4.1	-75.1 ± 1.7
